Experimental data: US8735414B2 (priority 2009, dated 2014)
pIC50: −log10 of the molar value.

Key:
[1] = test system: bicistronic HCV replicon (replicon RNA, GenBank Accession No. AJ242654); experiment: HCV Replicon Assay; type: cell-based; conditions: Hepatitis C virus, 72 h, read-out: Replicon IC50

| Compound | melting point | pIC50 [1] |
| --- | --- | --- |
| N#Cc1c(-c2ccc(S(=O)(=O)NC(CF)CF)cn2)n(C2CCC2)c2cc(Cl)ccc12 [compound 37, 6-(6-chloro-3-cyano-1-cyclobutyl-1H-indol-2-yl)-N-(1,3-difluoropropan-2-yl)pyridine-3-sulfonamide] | 200 to 202 °C | > 6.30 |
| N#Cc1c(-c2ccc(S(=O)(=O)NC(CF)CF)cn2)n(C2CCCC2)c2ccc(F)cc12 [compound 38, 6-(3-cyano-1-cyclopentyl-5-fluoro-1H-indol-2-yl)-N-(1,3-difluoropropan-2-yl)pyridine-3-sulfonamide] | 171 to 172 °C | > 6.30 |
| CC(C)NS(=O)(=O)c1ccc(-c2c(C#N)c3ccc(OC(F)F)cc3n2C2CC2)cn1 [compound 39, 5-[3-cyano-1-cyclopropyl-6-(difluoromethoxy)-1H-indol-2-yl]-N-(propan-2-yl)pyridine-2-sulfonamide] | 209 to 210 °C | 5.30 to 5.70 |
| N#Cc1c(-c2ccc(S(=O)(=O)NC(CF)CF)cn2)n(CC2CC2)c2cc(OC(F)F)ccc12 [compound 41, 6-[3-cyano-1-(cyclopropylmethyl)-6-(difluoromethoxy)-1H-indol-2-yl]-N-(1,3-difluoropropan-2-yl)pyridine-3-sulfonamide] | 150 to 151 °C | > 6.30 |
| N#Cc1c(-c2ccc(S(=O)(=O)NC(CF)CF)cn2)n(C2CC2)c2cc(OC(F)F)ccc12 [compound 42, 6-[3-cyano-1-cyclopropyl-6-(difluoromethoxy)-1H-indol-2-yl]-N-(1,3-difluoropropan-2-yl)pyridine-3-sulfonamide] | 219 to 220 °C | > 6.30 |
| CC(C)c1ccc2c(C#N)c(-c3ccc(S(=O)(=O)NC(CF)CF)cn3)n(C3CCC3)c2c1 [compound 43, 6-[3-cyano-1-cyclobutyl-6-(propan-2-yl)-1H-indol-2-yl]-N-(1,3-difluoropropan-2-yl)pyridine-3-sulfonamide] | 135 to 140 °C | > 6.30 |
| Cc1ccc2c(C#N)c(-c3ccc(S(=O)(=O)NC(CF)CF)cn3)n(C3CCCC3)c2c1 [compound 44, 6-(3-cyano-1-cyclopentyl-6-methyl-1H-indol-2-yl)-N-(1,3-difluoropropan-2-yl)pyridine-3-sulfonamide] | 144 to 145 °C | > 6.30 |
| CCCn1c(-c2ccc(S(=O)(=O)NC(CF)CF)cn2)c(C#N)c2ccc(OC(F)F)cc21 [compound 45, 6-[3-cyano-6-(difluoromethoxy)-1-propyl-1H-indol-2-yl]-N-(1,3-difluoropropan-2-yl)pyridine-3-sulfonamide] | 156 to 158 °C | > 6.30 |
| N#Cc1c(-c2ccc(S(=O)(=O)NC(CF)CF)cn2)n(C2CCOC2)c2ccc(F)cc12 (stereo not drawn) [compound 46, 6-[3-cyano-5-fluoro-1-(tetrahydrofuran-3-yl)-1H-indol-2-yl]-N-(1,3-difluoropropan-2-yl)pyridine-3-sulfonamide] | 194 to 197 °C | > 6.30 |
| CC(C)NS(=O)(=O)c1ccc(-c2c(C#N)c3cc(F)ccc3n2C2CCOC2)nc1 (stereo not drawn) [compound 47, 6-[3-cyano-5-fluoro-1-(tetrahydrofuran-3-yl)-1H-indol-2-yl]-N-(propan-2-yl)pyridine-3-sulfonamide] | 185 to 188 °C | > 6.30 |
| CCc1ccc2c(C#N)c(-c3ccc(S(=O)(=O)NC(CF)CF)cn3)n(C3CCC3)c2c1 [compound 48, 6-(3-cyano-1-cyclobutyl-6-ethyl-1H-indol-2-yl)-N-(1,3-difluoropropan-2-yl)pyridine-3-sulfonamide] | 201 to 202 °C | > 6.30 |
| N#Cc1c(-c2ccc(S(=O)(=O)NC(CF)CF)cn2)n(C2CCCC2)c2cc(OC(F)F)ccc12 [compound 49, 6-[3-cyano-1-cyclopentyl-6-(difluoromethoxy)-1H-indol-2-yl]-N-(1,3-difluoropropan-2-yl)pyridine-3-sulfonamide] | 177 to 178 °C | > 6.30 |
| N#Cc1c(-c2ccc(S(=O)(=O)NC(CF)CF)cn2)n(C2CCC2)c2cc(Cl)c(F)cc12 [compound 50, 6-(6-chloro-3-cyano-1-cyclobutyl-5-fluoro-1H-indol-2-yl)-N-(1,3-difluoropropan-2-yl)pyridine-3-sulfonamide] | 211 to 213 °C | > 6.30 |
| CC(NS(=O)(=O)c1ccc(-c2c(C#N)c3ccc(OC(F)F)cc3n2C2CCCC2)nc1)C(F)(F)F (stereo not drawn) [compound 53, 6-[3-cyano-1-cyclopentyl-6-(difluoromethoxy)-1H-indol-2-yl]-N-(1,1,1-trifluoropropan-2-yl)pyridine-3-sulfonamide] | 189 to 195 °C | > 6.30 |
| Cc1ccc2c(C#N)c(-c3ccc(S(=O)(=O)NC(CF)CF)cn3)n([C@@H]3CCOC3)c2c1 [compound 54, 6-{3-cyano-6-methyl-1-[(3R)-tetrahydrofuran-3-yl]-1H-indol-2-yl}-N-(1,3-difluoropropan-2-yl)pyridine-3-sulfonamide] | 152 to 153 °C | > 6.30 |
| Cc1ccc2c(C#N)c(-c3ccc(S(=O)(=O)NC(C)C)cn3)n([C@@H]3CCOC3)c2c1 [compound 55, 6-{3-cyano-6-methyl-1-[(3R)-tetrahydrofuran-3-yl]-1H-indol-2-yl}-N-(propan-2-yl)pyridine-3-sulfonamide] | 164 to 167 °C | > 6.30 |
| N#Cc1c(-c2ccc(S(=O)(=O)NC(CF)CF)cn2)n(C2CCC2)c2cc(F)ccc12 [compound 56, 6-(3-cyano-1-cyclobutyl-6-fluoro-1H-indol-2-yl)-N-(1,3-difluoropropan-2-yl)pyridine-3-sulfonamide] | 206 to 208 °C | > 6.30 |
| N#Cc1c(-c2ccc(S(=O)(=O)NC(CF)CF)cn2)n(CC2CC2)c2cc(F)ccc12 [compound 57, 6-[3-cyano-1-(cyclopropylmethyl)-6-fluoro-1H-indol-2-yl]-N-(1,3-difluoropropan-2-yl)pyridine-3-sulfonamide] | 188 to 190 °C | > 6.30 |
| N#Cc1c(-c2ccc(S(=O)(=O)NC(CF)CF)cn2)n(CC2CC2)c2ccc(F)cc12 [compound 58, 6-[3-cyano-1-(cyclopropylmethyl)-5-fluoro-1H-indol-2-yl]-N-(1,3-difluoropropan-2-yl)pyridine-3-sulfonamide] | 162 to 164 °C | > 6.30 |
| CC(C)n1c(-c2ccc(S(=O)(=O)NC(CF)CF)cn2)c(C#N)c2cc(F)ccc21 [compound 60, 6-[3-cyano-5-fluoro-1-(propan-2-yl)-1H-indol-2-yl]-N-(1,3-difluoropropan-2-yl)pyridine-3-sulfonamide] | 168 to 170 °C | > 6.30 |
| CC(C)n1c(-c2ccc(S(=O)(=O)NC(CF)CF)cn2)c(C#N)c2ccc(F)cc21 [compound 61, 6-[3-cyano-6-fluoro-1-(propan-2-yl)-1H-indol-2-yl]-N-(1,3-difluoropropan-2-yl)pyridine-3-sulfonamide] | 155 to 156 °C | > 6.30 |
| N#Cc1c(-c2ccc(S(=O)(=O)NC(CF)CF)cn2)n(CC2CC2)c2cc(Cl)ccc12 [compound 62, 6-[6-chloro-3-cyano-1-(cyclopropylmethyl)-1H-indol-2-yl]-N-(1,3-difluoropropan-2-yl)pyridine-3-sulfonamide] | 223 to 227 °C | > 6.30 |
| CC(C)n1c(-c2ccc(S(=O)(=O)NC(CF)CF)cn2)c(C#N)c2ccc(Cl)cc21 [compound 63, 6-[6-chloro-3-cyano-1-(propan-2-yl)-1H-indol-2-yl]-N-(1,3-difluoropropan-2-yl)pyridine-3-sulfonamide] | 200 to 202 °C | > 6.30 |
| N#Cc1c(-c2ccc(S(=O)(=O)NC(CF)CF)cn2)n(C2CCCC2)c2cc(Cl)ccc12 [compound 64, 6-(6-chloro-3-cyano-1-cyclopentyl-1H-indol-2-yl)-N-(1,3-difluoropropan-2-yl)pyridine-3-sulfonamide] | 236 to 240 °C | > 6.30 |
| CC(C)n1c(-c2ccc(S(=O)(=O)NC(CF)CF)cn2)c(C#N)c2cc(Cl)ccc21 [compound 65, 6-[5-chloro-3-cyano-1-(propan-2-yl)-1H-indol-2-yl]-N-(1,3-difluoropropan-2-yl)pyridine-3-sulfonamide] | 212 to 215 °C | > 6.30 |
| CC(C)NS(=O)(=O)c1ccc(-c2c(C#N)c3cccc(F)c3n2C2CCCC2)nc1 [compound 66, 6-(3-cyano-1-cyclopentyl-7-fluoro-1H-indol-2-yl)-N-(propan-2-yl)pyridine-3-sulfonamide] | 152 to 153 °C | > 6.30 |
| CC(C)(CF)NS(=O)(=O)c1ccc(-c2c(C#N)c3ccc(OC(F)F)cc3n2C2CCCC2)nc1 [compound 67, 6-[3-cyano-1-cyclopentyl-6-(difluoromethoxy)-1H-indol-2-yl]-N-(1-fluoro-2-methylpropan-2-yl)pyridine-3-sulfonamide] | 224 to 229 °C | > 6.30 |
| N#Cc1c(-c2ccc(S(=O)(=O)NC(CF)CF)cn2)n(CC2CC2)c2cc(OC(F)(F)F)ccc12 [compound 68, 6-[3-cyano-1-(cyclopropylmethyl)-6-(trifluoromethoxy)-1H-indol-2-yl]-N-(1,3-difluoropropan-2-yl)pyridine-3-sulfonamide] | 132 to 133 °C | > 6.30 |
| CC(C)n1c(-c2ccc(S(=O)(=O)NC(CF)CF)cn2)c(C#N)c2ccc(OC(F)(F)F)cc21 [compound 69, 6-[3-cyano-1-(propan-2-yl)-6-(trifluoromethoxy)-1H-indol-2-yl]-N-(1,3-difluoropropan-2-yl)pyridine-3-sulfonamide] | 116 to 117 °C | > 6.30 |
| N#Cc1c(-c2ccc(S(=O)(=O)NC(CF)CF)cn2)n(C2CCCC2)c2cc(OC(F)(F)F)ccc12 [compound 70, 6-[3-cyano-1-cyclopentyl-6-(trifluoromethoxy)-1H-indol-2-yl]-N-(1,3-difluoropropan-2-yl)pyridine-3-sulfonamide] | 141 to 143 °C | > 6.30 |
